Data reported in patent US20260125378A2, “Heterocyclic Compounds” (BeOne Medicines I GmbH, priority 2023, published 2026).
pIC50: −log10 of the molar value.

How the values were obtained:
[1] = target: T1, Full length DGKα (D21-10BG, SignalChem) (Homo sapiens, UniProt P23743); assay: Biochemical DGK IC50 assay (ADP-Glo, lipid micelle substrate), DGKα; settings: 1 hour preincubation, 1 hour reaction, room temperature
T1 construct: Full length DGKα (D21-10BG, SignalChem); purchased SignalChem D21-10BG
T1 sequence (P23743 whole entry): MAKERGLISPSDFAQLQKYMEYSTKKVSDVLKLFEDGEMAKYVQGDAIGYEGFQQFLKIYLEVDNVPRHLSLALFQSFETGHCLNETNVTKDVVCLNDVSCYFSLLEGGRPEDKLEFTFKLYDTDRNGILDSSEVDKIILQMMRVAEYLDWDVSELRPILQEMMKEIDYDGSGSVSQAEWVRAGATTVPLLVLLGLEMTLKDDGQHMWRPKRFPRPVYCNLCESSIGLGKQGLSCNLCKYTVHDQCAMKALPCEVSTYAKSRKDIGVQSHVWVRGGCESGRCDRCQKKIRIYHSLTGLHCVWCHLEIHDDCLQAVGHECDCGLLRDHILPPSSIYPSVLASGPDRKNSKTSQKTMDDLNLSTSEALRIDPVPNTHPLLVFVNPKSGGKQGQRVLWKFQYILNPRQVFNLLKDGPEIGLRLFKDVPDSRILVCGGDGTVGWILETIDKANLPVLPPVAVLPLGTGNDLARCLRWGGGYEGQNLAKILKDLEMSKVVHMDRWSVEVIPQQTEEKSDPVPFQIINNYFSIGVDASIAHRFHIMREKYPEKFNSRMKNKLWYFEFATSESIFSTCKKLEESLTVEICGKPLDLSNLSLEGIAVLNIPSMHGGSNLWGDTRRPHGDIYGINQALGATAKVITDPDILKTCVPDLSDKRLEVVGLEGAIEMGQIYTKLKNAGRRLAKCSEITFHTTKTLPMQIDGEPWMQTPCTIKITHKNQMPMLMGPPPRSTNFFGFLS
Procedure, shortened: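 ADP-Glo luminescence quantified ADP produced after a 1 h room-temperature reaction of full-length DGKα on DAG/PS micelles, in HEPES buffer containing MgCl2, CaCl2, vanadate, BSA and Tween-20. IC50 values derive from activity inhibition over a compound concentration series.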

[2] = target: T2, Full length DGKζ (in-house protein M1-V929) (Homo sapiens, UniProt Q13574); assay: Biochemical DGK IC50 assay (ADP-Glo, lipid micelle substrate), DGKζ; settings: 1 hour preincubation, 1 hour reaction, room temperature
T2 construct: His (N); TEV site (N); made in house; host or cells: Sf9 insect cells (Bac-to-Bac baculovirus)
T2 sequence (Q13574 1-929 isoform Q13574-4): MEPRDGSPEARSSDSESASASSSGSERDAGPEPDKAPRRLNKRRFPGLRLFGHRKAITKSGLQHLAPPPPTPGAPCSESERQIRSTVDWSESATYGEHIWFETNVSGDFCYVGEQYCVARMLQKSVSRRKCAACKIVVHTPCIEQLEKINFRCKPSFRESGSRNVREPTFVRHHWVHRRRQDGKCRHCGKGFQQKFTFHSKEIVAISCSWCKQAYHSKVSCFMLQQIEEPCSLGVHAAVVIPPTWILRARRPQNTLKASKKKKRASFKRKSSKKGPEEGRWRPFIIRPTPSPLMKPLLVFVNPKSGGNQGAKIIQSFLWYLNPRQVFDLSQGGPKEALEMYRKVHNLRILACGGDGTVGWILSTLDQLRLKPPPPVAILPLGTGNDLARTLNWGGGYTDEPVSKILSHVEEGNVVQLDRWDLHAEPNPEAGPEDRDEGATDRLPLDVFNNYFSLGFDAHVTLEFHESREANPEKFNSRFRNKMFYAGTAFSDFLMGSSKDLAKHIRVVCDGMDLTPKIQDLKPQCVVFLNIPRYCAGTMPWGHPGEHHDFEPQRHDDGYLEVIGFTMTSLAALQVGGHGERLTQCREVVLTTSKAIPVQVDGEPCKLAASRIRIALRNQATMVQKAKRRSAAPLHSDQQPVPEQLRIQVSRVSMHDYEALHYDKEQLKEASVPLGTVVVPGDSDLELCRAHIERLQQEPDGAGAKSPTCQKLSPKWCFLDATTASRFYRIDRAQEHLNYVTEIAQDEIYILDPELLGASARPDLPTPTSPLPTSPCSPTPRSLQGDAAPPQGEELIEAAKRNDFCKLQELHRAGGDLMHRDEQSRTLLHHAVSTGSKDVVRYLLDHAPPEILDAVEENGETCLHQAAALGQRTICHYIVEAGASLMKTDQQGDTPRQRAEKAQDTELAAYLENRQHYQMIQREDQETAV
Procedure, shortened: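 Enzyme: full-length human DGKζ M1-V929, produced in baculovirus-infected Sf9 cells; substrate DAG/PS micelles. Buffer 50 mM HEPES, 10 mM MgCl2, 0.01 mM CaCl2, 0.1 mM Na3VO4.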

| SMILES | pIC50 [1] | pIC50 [2] |
| --- | --- | --- |
| CCn1c(CC#N)nc2c(N3C[C@@H](C)N(C(C)c4ccc(C)cc4C(F)(F)F)C[C@@H]3C)nc(=O)n(C)c21 (single isomer, unassigned) [Compound A116b] | < 3.82 | 6.64 |
| CCn1c(CC#N)nc2c(N3C[C@@H](C)N(C(C)c4ccc5ccn(C)c(=O)c5c4)C[C@@H]3C)nc(=O)n(C)c21 (stereo partly drawn) [Compound A92, 2-(6-((2S,5R)-2,5-dimethyl-4-(1-(2-methyl-1-oxo-1,2-dihydroisoquinolin-7-yl)ethyl)piperazin-1-yl)-9-ethyl-3-methyl-2-oxo-3,9-dihydro-2H-purin-8-yl)acetonitrile] | < 3.82 | 6.91 |
| CC(c1cc2ccccc2cn1)N1C[C@H](C)N(c2nc(=O)n(C)c3c2nc(CC#N)n3C)C[C@H]1C (stereo partly drawn) [Compound A154, 2-(6-((2S,5R)-4-(1-(isoquinolin-3-yl)ethyl)-2,5-dimethylpiperazin-1-yl)-3,9-dimethyl-2-oxo-3,9-dihydro-2H-purin-8-yl)acetonitrile] | 5.61 | 6.75 |
| CCn1c(CC#N)nc2c(N3C[C@@H](C)N(C(C)c4cccc(OC(C)C)n4)C[C@@H]3C)nc(=O)n(C)c21 (single isomer, unassigned) [Compound A117a] | < 3.82 | 5.48 |
| CCn1c(CC#N)nc2c(N3C[C@@H](C)N(C(C)c4ccnc(OC(C)C)c4)C[C@@H]3C)nc(=O)n(C)c21 (stereo partly drawn) [Compound A124, 2-(9-ethyl-6-((2S,5R)-4-(1-(2-isopropoxypyridin-4-yl)ethyl)-2,5-dimethylpiperazin-1-yl)-3-methyl-2-oxo-3,9-dihydro-2H-purin-8-yl)acetonitrile] | 3.95 | 7.32 |
| CCn1c(CC#N)nc2c(N3C[C@@H](C)N(C(C)c4ccc5c(c4)C(=O)N(C)CO5)C[C@@H]3C)nc(=O)n(C)c21 (stereo partly drawn) [Compound A192, 2-(6-((2S,5R)-2,5-dimethyl-4-(1-(3-methyl-4-oxo-3,4-dihydro-2H-benzo[e][1,3]oxazin-6-yl)ethyl)piperazin-1-yl)-9-ethyl-3-methyl-2-oxo-3,9-dihydro-2H-purin-8-yl)acetonitrile] | < 3.82 | 6.92 |
| CC(c1ccc2nccnc2c1)N1C[C@H](C)N(c2c(F)c(=O)n(C)c3c2nc(CC#N)n3C)C[C@H]1C (single isomer, unassigned) [Compound A22a] | < 5.00 | 7.59 |
| CCn1c(CC#N)nc2c(N3C[C@@H](C)N(C(C)c4c(F)cc5c(c4F)OC(C)(C)O5)C[C@@H]3C)nc(=O)n(C)c21 (single isomer, unassigned) [Compound A176a] | 4.88 | 7.40 |
| [2H]C([2H])([2H])n1c(CC#N)nc2c(N3C[C@@H](C)N(C(C)c4ccc(F)cc4C(F)(F)F)C[C@@H]3C)nc(=O)n(C)c21 (stereo partly drawn) [Compound A37, 2-(6-((2S,5R)-4-(1-(4-fluoro-2-(trifluoromethyl)phenyl)ethyl)-2,5-dimethylpiperazin-1-yl)-3-methyl-9-(methyl-d3)-2-oxo-3,9-dihydro-2H-purin-8-yl)acetonitrile] | 3.89 | 7.74 |
| Cc1ccc(C(C)N2C[C@H](C)N(c3cc(=O)n(C)c4sc(CC#N)nc34)C[C@H]2C)c(C(F)(F)F)c1 (stereo partly drawn) [Compound A196, 2-(7-((2S,5R)-2,5-dimethyl-4-(1-(4-methyl-2-(trifluoromethyl)phenyl)ethyl)piperazin-1-yl)-4-methyl-5-oxo-4,5-dihydrothiazolo[5,4-b]pyridin-2-yl)acetonitrile] | < 5.00 | 6.13 |
| CCn1c(CC#N)nc2c(N3C[C@@H](C)N(C(C)c4ccc5c(c4)C(F)(F)CCO5)C[C@@H]3C)nc(=O)n(C)c21 (stereo partly drawn) [Compound A78, 2-(6-((2S,5R)-4-(1-(4,4-difluorochroman-6-yl)ethyl)-2,5-dimethylpiperazin-1-yl)-9-ethyl-3-methyl-2-oxo-3,9-dihydro-2H-purin-8-yl)acetonitrile] | 3.99 | 8.15 |
| CCn1c(CC#N)nc2c(N3C[C@@H](C)N(C(C)c4ccc(CN5CCOCC5)cc4)C[C@@H]3C)nc(=O)n(C)c21 (stereo partly drawn) [Compound A139, 2-(6-((2S,5R)-2,5-dimethyl-4-(1-(4-(morpholinomethyl)phenyl)ethyl)piperazin-1-yl)-9-ethyl-3-methyl-2-oxo-3,9-dihydro-2H-purin-8-yl)acetonitrile] | 3.92 | 5.66 |
| COC[C@H]1CN(C(C)c2ccc(F)cc2C(F)(F)F)[C@H](C)CN1c1nc(=O)n(C)c2c1nc(CC#N)n2C (stereo partly drawn) [Compound A10, 2-(6-((2R,5R)-4-(1-(4-fluoro-2-(trifluoromethyl)phenyl)ethyl)-2-(methoxymethyl)-5-methylpiperazin-1-yl)-3,9-dimethyl-2-oxo-3,9-dihydro-2H-purin-8-yl)acetonitrile] | < 5.00 | 7.60 |
| Cc1ccc(C(C)N2C[C@H](C)N(c3cc(=O)n(C)c4c3nc(CC#N)n4C)C[C@H]2C)c(C(F)(F)F)c1 (single isomer, unassigned) [Compound A8b] | < 3.82 | 7.01 |
| CC[C@@H]1CN(c2nc(=O)n(C)c3c2nc(CC#N)n3CC)[C@@H](C)CN1C(C)c1ccc2c(n1)OC(C)(C)CO2 (single isomer, unassigned) [Compound A158b] | < 3.82 | 6.39 |
| CC(c1cccnc1C(F)(F)F)N1C[C@H](C)N(c2cc(=O)n(C)c3c2nc(CC#N)n3C)C[C@H]1C (single isomer, unassigned) [Compound A7b] | 4.01 | 7.46 |
| CCn1c(CC#N)nc2c(N3C[C@@H](C)N(C(C)c4cccc(OC(C)C)c4)C[C@@H]3C)nc(=O)n(C)c21 (stereo partly drawn) [Compound A43, 2-(9-ethyl-6-((2S,5R)-4-(1-(3-isopropoxyphenyl)ethyl)-2,5-dimethylpiperazin-1-yl)-3-methyl-2-oxo-3,9-dihydro-2H-purin-8-yl)acetonitrile] | 4.00 | 7.10 |
| CCn1c(CC#N)nc2c(N3C[C@@H](C)N(C(C)c4ccc5c(c4Cl)OC(C)(C)O5)C[C@@H]3C)nc(=O)n(C)c21 (single isomer, unassigned) [Compound A172b] | 3.94 | 8.10 |
| CCn1c(CC#N)nc2c(N3C[C@@H](C)N(C(C)c4ccc5c(c4F)OC(C)(C)O5)C[C@@H]3C)nc(=O)n(C)c21 (single isomer, unassigned) [Compound A175a] | 4.43 | 6.54 |
| CC[C@@H]1CN(c2nc(=O)n(C)c3c2nc(CC#N)n3C)[C@@H](C)CN1C(C)c1ccc2ncc(C)nc2c1 (single isomer, unassigned) [Compound A50a] | 4.61 | 8.40 |
| CC(c1ccc2nccnc2c1)N1C[C@H](C)N(c2cc(=O)n(C)c3sc(CC#N)nc23)C[C@H]1C (mixture of isomers) [Compound A194, 2-(7-((2S,5R)-2,5-dimethyl-4-(1-(quinoxalin-6-yl)ethyl)piperazin-1-yl)-4-methyl-5-oxo-4,5-dihydrothiazolo[5,4-b]pyridin-2-yl)acetonitrile] | 5.39 | 8.15 |
| CC(c1ccc2c(c1)OC(C)(C)CO2)N1C[C@H](C)N(c2nc(=O)n(C)c3c2nc(CC#N)n3CC(F)F)C[C@H]1C (stereo partly drawn) [Compound A87, 2-(9-(2,2-difluoroethyl)-6-((2S,5R)-4-(1-(3,3-dimethyl-2,3-dihydrobenzo[b][1,4]dioxin-6-yl)ethyl)-2,5-dimethylpiperazin-1-yl)-3-methyl-2-oxo-3,9-dihydro-2H-purin-8-yl)acetonitrile] | 4.66 | 8.70 |
